Assays:
[1] = log k (capacity factor) was measured by micellar liquid chromatography in Brij35 medium; settings: 0.04 M Brij35
physchem [2] = settings: buffer, pH 7.4
Description: log P values determined at pH 7.4

physchem [3] = settings: octanol/water
[4] = Protonation constant of the compound.; format: ADME
[5] = log P value at pH 7.4; format: physicochemical; settings: buffer
[6] = Protonation constant by using Brij35 as a medium; format: ADME
[7] = Partition coefficient (logP); format: physicochemical; settings: octanol/water
in vivo = settings: plasma
Description: Plasma clearance for the compound was determined.

[8] = Half life period is estimated; format: ADME
[9] = Compound was tested for its binding affinity towards brain (Hippocampus) Adenylate cyclase; design: species or system Cavia porcellus
[10] = biological target: Serotonin (5-HT) receptor; assay: Compound was tested for its inhibitory activity against 5-hydroxytryptamine receptor; format: protein assay, Rattus norvegicus
Histamine H2 receptor = Histamine H2 receptor (Cavia porcellus, UniProt P47747); assay: Inhibitory activity against brain adenylate cyclase Histamine H2 receptor; format: functional
Histamine H2 receptor, sequence (P47747 whole entry): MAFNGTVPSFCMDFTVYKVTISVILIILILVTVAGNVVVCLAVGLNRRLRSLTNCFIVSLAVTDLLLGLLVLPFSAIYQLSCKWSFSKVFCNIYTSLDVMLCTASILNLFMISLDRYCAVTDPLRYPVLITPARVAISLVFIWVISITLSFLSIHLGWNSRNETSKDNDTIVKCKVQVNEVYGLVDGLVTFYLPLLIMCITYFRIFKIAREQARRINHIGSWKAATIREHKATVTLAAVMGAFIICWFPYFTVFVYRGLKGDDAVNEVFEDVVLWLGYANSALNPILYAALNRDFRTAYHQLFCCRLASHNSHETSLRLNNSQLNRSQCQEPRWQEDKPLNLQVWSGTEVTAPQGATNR

[11] = Compound was tested for its binding affinity towards brain (neocortex) Adenylate cyclase; design: species or system Cavia porcellus
Histamine H1 receptor = Histamine H1 receptor (Rattus norvegicus, UniProt P31390); assay: Compound tested for its inhibitory activity against Histamine H1 receptor
Histamine H1 receptor, sequence (P31390 whole entry): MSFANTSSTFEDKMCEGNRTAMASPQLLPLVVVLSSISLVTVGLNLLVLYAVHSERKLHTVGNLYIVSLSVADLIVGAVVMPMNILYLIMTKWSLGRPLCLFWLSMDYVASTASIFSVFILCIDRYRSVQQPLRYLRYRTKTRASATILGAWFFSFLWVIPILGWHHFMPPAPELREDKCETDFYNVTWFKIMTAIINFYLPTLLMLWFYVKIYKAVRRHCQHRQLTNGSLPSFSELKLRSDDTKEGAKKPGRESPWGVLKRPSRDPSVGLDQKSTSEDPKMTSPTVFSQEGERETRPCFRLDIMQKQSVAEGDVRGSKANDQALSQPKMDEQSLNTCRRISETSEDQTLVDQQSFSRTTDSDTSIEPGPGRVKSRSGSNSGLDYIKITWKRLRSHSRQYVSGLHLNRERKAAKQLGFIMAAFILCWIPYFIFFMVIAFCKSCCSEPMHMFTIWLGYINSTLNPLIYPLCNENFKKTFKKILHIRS

[12] = Therapeutic plasma levels for the compound was evaluated.; format: ADME, cell-free
[13] = Compound was tested for its inhibitory activity against Noradrenaline receptor; design: species or system Rattus norvegicus
[14] = biological target: T1, Alpha-1A adrenergic receptor (Rattus norvegicus, UniProt P43140); assay: Compound was tested for its inhibitory activity against Alpha-1 adrenergic receptor
T1 sequence (P43140 whole entry): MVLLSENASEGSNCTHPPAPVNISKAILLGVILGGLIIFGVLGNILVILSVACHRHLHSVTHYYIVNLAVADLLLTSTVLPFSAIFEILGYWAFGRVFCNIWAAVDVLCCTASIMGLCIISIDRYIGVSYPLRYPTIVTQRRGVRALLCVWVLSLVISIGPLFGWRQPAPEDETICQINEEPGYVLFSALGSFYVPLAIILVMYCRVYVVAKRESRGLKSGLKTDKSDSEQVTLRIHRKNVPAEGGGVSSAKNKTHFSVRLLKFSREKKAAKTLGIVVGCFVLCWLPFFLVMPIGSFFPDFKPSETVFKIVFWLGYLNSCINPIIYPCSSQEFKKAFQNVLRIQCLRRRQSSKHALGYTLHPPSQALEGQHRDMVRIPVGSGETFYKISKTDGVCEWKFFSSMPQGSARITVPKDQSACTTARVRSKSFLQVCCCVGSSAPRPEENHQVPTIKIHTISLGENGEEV

[15] = Volume of distribution in the plasma fluid was determined; format: ADME, organism-based
[16] = buffer, pH 7.4
Description: log P values determined at pH 7.4

[17] = octanol/water

With `CN(C)CCC=C1c2ccccc2C(C)(C)c2ccccc21` the “Log K” value [1] was 1.97, the logD (physchem [2]) was 4.83 and the logP (physchem [3]) was 5.12. The pKa [4] was 7.38.
In the case of `O=C(O)CCCCCCNC1c2ccccc2CCc2ccccc21` [AMINEPTINE], the logD [5] is reported as 2.26, the “Log K” value [1] is reported as 1.09 and the pKa [6] is reported as 5.24. For the same compound, the logP [7] was 2.44.
For `CN(C)CCC=C1c2ccccc2CCc2ccccc21` [AMITRIPTYLINE], the “Log K” value [1] was 1.84, the logD (physchem [2]) was 2.62 and the clearance (in vivo) was 1200 mL/min. For the same compound, the half-life [8] was 27.5 h, the logP (physchem [3]) was 4.64 and the Ki [9] was 53 nM. For the same compound, the IC50 [10] was 44 nM, the IC50 (Histamine H2 receptor) was 660 nM and the Ki [11] was 60 nM. The IC50 (Histamine H1 receptor) was 20 nM, the T.P.L [12] was 180 ng/mL and the IC50 [13] was 41 nM. The IC50 [14] was 20 nM, the Vd [15] was 15 L/kg and the pKa [4] was 9.42.
In the case of `Clc1ccc2c(c1)C(N1CCNCC1)=Nc1ccccc1O2` [AMOXAPINE], the “Log K” value [1] is reported as 1.63, the logP (physchem [3]) is reported as 3.89 and the logD [16] is reported as 3.48. It also gave a pKa [4] of 7.6.
For `CN(C)CCCN1c2ccccc2CCc2ccc(Cl)cc21` [CLOMIPRAMINE], the “Log K” value [1] was 1.89, the logD (physchem [2]) was 3.32 and the clearance (in vivo) was 1210 mL/min. The Ki [9] was 55 nM, the IC50 (Histamine H2 receptor) was 720 nM and the Ki [11] was 43 nM. It also gave a T.P.L [12] of 90 ng/mL, an IC50 [13] of 46 nM and a Vd [15] of 13.5 L/kg. The logP [17] was 5.19 and the pKa [4] was 9.38.
In the case of `CNCCCN1c2ccccc2CCc2ccccc21` [DESIPRAMINE], the “Log K” value [1] is reported as 1.46, the half-life [8] is reported as 37.5 h and the Ki [9] is reported as 350 nM. It also gave an IC50 (Histamine H2 receptor) of 3800 nM, a Ki [11] of 320 nM and a T.P.L [12] of 212.5 ng/mL. For the same compound, the IC50 [13] was 2 nM and the Vd [15] was 22 L/kg.
With `CN(C)CCC=C1c2ccccc2CSc2ccccc21` [DOTHIEPIN] the “Log K” value [1] was 1.74, the logD (physchem [2]) was 2.66 and the logP (physchem [3]) was 4.52. It also gave a pKa [4] of 9.25.
In the case of `CN(C)CC/C=C1/c2ccccc2COc2ccccc21` [DOXEPIN], the “Log K” value [1] is reported as 1.69, the logD (physchem [2]) is reported as 2.27 and the clearance (in vivo) is reported as 850 mL/min. It also gave a half-life [8] of 16.5 h, a logP (physchem [3]) of 3.88 and a Ki [9] of 170 nM. For the same compound, the IC50 (Histamine H2 receptor) was 1600 nM, the Ki [11] was 190 nM and the IC50 [13] was 65 nM. The IC50 [14] was 10 nM and the pKa [4] was 9.
In the case of `CN(C)CCCN1c2ccccc2CCc2ccccc21` [IMIPRAMINE], the “Log K” value [1] is reported as 1.8, the Ki [9] is reported as 160 nM and the IC50 (Histamine H2 receptor) is reported as 1900 nM. The Ki [11] was 160 nM, the IC50 (Histamine H1 receptor) was 60 nM and the T.P.L [12] was 275 ng/mL. The IC50 [13] was 46 nM and the Vd [15] was 30 L/kg.
For `CN1CCN(C2=Nc3ccccc3Oc3ccc(Cl)cc32)CC1` [LOXAPINE], the “Log K” value [1] was 1.86 and the pKa [4] was 6.6.
For `CNCCCC12CCC(c3ccccc31)c1ccccc12` [MAPROTILINE], the “Log K” value [1] was 1.47, the logD (physchem [2]) was 1.12 and the logP (physchem [3]) was 4.22. For the same compound, the pKa [4] was 10.5.
In the case of `CN1CCN2c3ccccc3Cc3ccccc3C2C1` (stereo not given) [MIANSERIN], the “Log K” value [1] is reported as 1.87, the logD (physchem [2]) is reported as 4.08 and the half-life [8] is reported as 25 h. It also gave a logP (physchem [3]) of 4.26, a Ki [9] of 65 nM and an IC50 (Histamine H2 receptor) of 880 nM. For the same compound, the Ki [11] was 71 nM, the Vd [15] was 16 L/kg and the pKa [4] was 7.1.
For `CNCCC=C1c2ccccc2CCc2ccccc21` [NORTRIPTYLINE], the “Log K” value [1] was 1.52, the logD (physchem [2]) was 2.02 and the clearance (in vivo) was 1320 mL/min. It also gave a half-life [8] of 35.5 h, a logP (physchem [3]) of 4.32 and a Ki [9] of 450 nM. It also gave an IC50 (Histamine H2 receptor) of 7000 nM, a Ki [11] of 280 nM and an IC50 (Histamine H1 receptor) of 50 nM. The IC50 [13] was 9 nM, the IC50 [14] was 40 nM and the Vd [15] was 35 L/kg. For the same compound, the pKa [4] was 9.7.
In the case of `c1ccc2c(c1)CCc1ccccc1N2C1CN2CCC1CC2` (stereo not given) [QUINUPRAMINE], the “Log K” value [1] is reported as 1.62, the logD (physchem [2]) is reported as 1.36 and the logP (physchem [3]) is reported as 4.94. It also gave a pKa [6] of 7.85.
In the case of `CC(CN(C)C)CN1c2ccccc2CCc2ccccc21` (stereo not given) [TRIMIPRAMINE], the “Log K” value [1] is reported as 1.86, the logP (physchem [3]) is reported as 4.73 and the pKa [6] is reported as 6.77. The logD [16] was 4.64.
